Tests used:
Type in all cases: in vivo, nude/nude mice
SW1573 cells = experiment: SW1573 tumor bearing mice, single agents and combination; details: for tumor growth inhibition: Day 28, single agent, Compound 478 100 mg/kg or palbociclib 130 mg/kg p.o. daily; for Average Tumor Volume: Compound 478 100 mg/kg, palbociclib 130 mg/kg, 7 mice averaged
Procedure: (§1) Immunocompromised nude/nude mice were inoculated in the right hind flank with cells or patient derived tumor samples harboring a KRas G12C mutation. When tumor volumes reached between 200-400 mm^3 in size, the mice were divided into four groups of 5-12 mice each. The first group was administered vehicle only. […] The fourth group was administered the single agent dose of the KRas G12C inhibitor in combination with the single agent dose of the CDK 4/6 inhibitor. […] Tumor volumes were measured using a caliper every two-three days and tumor volumes are calculated by the formula: […].
For example, 28 nude/nude mice were inoculated in the right hind limb with 5×10^6 SW1573 cells.

H2122 cells = experiment: H2122 tumor bearing mice, single agents and combination; details: for tumor growth inhibition: Day 23, single agent, Compound 478 100 mg/kg or palbociclib 130 mg/kg p.o. daily; for Average Tumor Volume: Compound 478 100 mg/kg, palbociclib 130 mg/kg, 5 mice averaged
Procedure: as §1
Similarly, 20 nude/nude mice were inoculated in the right hind limb with 5×10^6 H2122 cells.

LU6405 cells = experiment: LU6405 tumor bearing mice, single agents and combination; details: for Average Tumor Volume: Compound 478 100 mg/kg, palbociclib 130 mg/kg, 5 mice averaged
Procedure: as §1
In another experiment, on Day 0, 20 nude/nude mice were inoculated in the right hind limb with 5×10^6 LU6405 cells.

[1] = Study Day 23, p.o. daily for 21 days
[2] = Study Day 22, p.o. daily for 21 days
[3] = Study Day 24, p.o. daily for 21 days

SMILES: CC(=O)c1c(C)c2cnc(Nc3ccc(N4CCNCC4)cn3)nc2n(C2CCCC2)c1=O [Palbociclib, 6-acetyl-8-cyclopentyl-5-methyl-2-((5-(piperazin-1-yl)pyridin-2-yl)amino)pyrido[2,3-d]pyrimidin-7(8H)-one]
- tumor growth inhibition (SW1573 cells): 40%
- Average Tumor Volume (SW1573 cells; Study Day 0, p.o. daily): 356 mm^3
- Average Tumor Volume (SW1573 cells; Study Day 3, p.o. daily): 444 mm^3
- Average Tumor Volume (SW1573 cells; Study Day 6, p.o. daily): 484 mm^3
- Average Tumor Volume (SW1573 cells; Study Day 9, p.o. daily): 508 mm^3
- Average Tumor Volume (SW1573 cells; Study Day 11, p.o. daily): 515 mm^3
- Average Tumor Volume (SW1573 cells; Study Day 14, p.o. daily): 748 mm^3
- Average Tumor Volume (SW1573 cells; Study Day 16, p.o. daily): 807 mm^3
- Average Tumor Volume (SW1573 cells; Study Day 18, p.o. daily): 706 mm^3
- Average Tumor Volume (SW1573 cells; Study Day 21, p.o. daily): 926 mm^3
- Average Tumor Volume (SW1573 cells; Study Day 23, p.o. daily): 1029 mm^3
- Average Tumor Volume (SW1573 cells; Study Day 25, p.o. daily): 1167 mm^3
- Average Tumor Volume (SW1573 cells; Study Day 28, p.o. daily): 1240 mm^3
- tumor growth inhibition (H2122 cells): 65%
- Average Tumor Volume (H2122 cells; Study Day 0, p.o. daily): 326 mm^3
- Average Tumor Volume (H2122 cells; Study Day 2, p.o. daily): 385 mm^3
- Average Tumor Volume (H2122 cells; Study Day 4, p.o. daily): 493 mm^3
- Average Tumor Volume (H2122 cells; Study Day 7, p.o. daily): 601 mm^3
- Average Tumor Volume (H2122 cells; Study Day 9, p.o. daily): 646 mm^3
- Average Tumor Volume (H2122 cells; Study Day 11, p.o. daily): 663 mm^3
- Average Tumor Volume (H2122 cells; Study Day 14, p.o. daily): 748 mm^3
- Average Tumor Volume (H2122 cells; Study Day 16, p.o. daily): 765 mm^3
- Average Tumor Volume (H2122 cells; Study Day 18, p.o. daily): 790 mm^3
- Average Tumor Volume (H2122 cells; Study Day 21, p.o. daily): 836 mm^3
- Average Tumor Volume (H2122 cells; [1]): 834 mm^3
- Average Tumor Volume (LU6405 cells; Study Day 1, p.o. daily): 255.36 mm^3
- Average Tumor Volume (LU6405 cells; Study Day 4, p.o. daily): 440.79 mm^3
- Average Tumor Volume (LU6405 cells; Study Day 8, p.o. daily): 659.01 mm^3
- Average Tumor Volume (LU6405 cells; Study Day 11, p.o. daily): 834.95 mm^3
- Average Tumor Volume (LU6405 cells; Study Day 15, p.o. daily): 1165.80 mm^3
- Average Tumor Volume (LU6405 cells; Study Day 18, p.o. daily): 1295.57 mm^3
- Average Tumor Volume (LU6405 cells; [2]): 1363.40 mm^3
- Average Tumor Volume (LU6405 cells; [3]): 1382.59 mm^3

SMILES: C=C(F)C(=O)N1CCN(c2nc(OC[C@@H]3CCCN3C)nc3c2CCN(c2cccc4cccc(Cl)c24)C3)C[C@@H]1CC#N [Compound 478]
- tumor growth inhibition (SW1573 cells): 71%
- Average Tumor Volume (SW1573 cells; Study Day 0, p.o. daily): 357 mm^3
- Average Tumor Volume (SW1573 cells; Study Day 6, p.o. daily): 404 mm^3
- Average Tumor Volume (SW1573 cells; Study Day 9, p.o. daily): 435 mm^3
- Average Tumor Volume (SW1573 cells; Study Day 14, p.o. daily): 523 mm^3
- Average Tumor Volume (SW1573 cells; Study Day 16, p.o. daily): 575 mm^3
- Average Tumor Volume (SW1573 cells; Study Day 18, p.o. daily): 607 mm^3
- Average Tumor Volume (SW1573 cells; Study Day 21, p.o. daily): 754 mm^3
- Average Tumor Volume (SW1573 cells; Study Day 23, p.o. daily): 758 mm^3
- Average Tumor Volume (SW1573 cells; Study Day 25, p.o. daily): 741 mm^3
- Average Tumor Volume (SW1573 cells; Study Day 28, p.o. daily): 785 mm^3
- tumor growth inhibition (H2122 cells): 85%
- Average Tumor Volume (H2122 cells; Study Day 0, p.o. daily): 325 mm^3
- Average Tumor Volume (H2122 cells; Study Day 2, p.o. daily): 340 mm^3
- Average Tumor Volume (H2122 cells; Study Day 4, p.o. daily): 338 mm^3
- Average Tumor Volume (H2122 cells; Study Day 7, p.o. daily): 381 mm^3
- Average Tumor Volume (H2122 cells; Study Day 9, p.o. daily): 462 mm^3
- Average Tumor Volume (H2122 cells; Study Day 11, p.o. daily): 480 mm^3
- Average Tumor Volume (H2122 cells; Study Day 14, p.o. daily): 493 mm^3
- Average Tumor Volume (H2122 cells; Study Day 16, p.o. daily): 541 mm^3
- Average Tumor Volume (H2122 cells; Study Day 18, p.o. daily): 537 mm^3
- Average Tumor Volume (H2122 cells; Study Day 21, p.o. daily): 547 mm^3
- Average Tumor Volume (H2122 cells; [1]): 547 mm^3
- tumor growth inhibition (LU6405 cells; Day 24, single agent, Compound 478 100 mg/kg p.o. daily): 96%
- Average Tumor Volume (LU6405 cells; Study Day 1, p.o. daily): 256.06 mm^3
- Average Tumor Volume (LU6405 cells; Study Day 4, p.o. daily): 308.98 mm^3
- Average Tumor Volume (LU6405 cells; Study Day 8, p.o. daily): 324.46 mm^3
- Average Tumor Volume (LU6405 cells; Study Day 11, p.o. daily): 329.09 mm^3
- Average Tumor Volume (LU6405 cells; Study Day 15, p.o. daily): 310.21 mm^3
- Average Tumor Volume (LU6405 cells; Study Day 18, p.o. daily): 290.88 mm^3
- Average Tumor Volume (LU6405 cells; [2]): 257.34 mm^3
- Average Tumor Volume (LU6405 cells; [3]): 249.19 mm^3
